Literature values as cited in patent publication US20240408179A1, “ORAL DELIVERY OF THERAPEUTIC AGENTS” (GUANGZHOU DAZHOU BIOMEDICINE LTD., priority 2021, published 2024).

Columns and labels:
[1] = system: T2D patients with high risk of cardiovascular disease events; settings: empagliflozin group versus placebo group
[2] = humans, co-formulated with SNAC

| Molecule | relative risk reduction in death from cardiovascular causes [1] [%] | oral bioavailability (BA %) [2] |
| --- | --- | --- |
| OC[C@H]1O[C@@H](c2ccc(Cl)c(Cc3ccc(O[C@H]4CCOC4)cc3)c2)[C@H](O)[C@@H](O)[C@@H]1O [empagliflozin] | 38 | – |
| semaglutide | – | 0.5-1% |
